The source of these data is BindingDB's records for doi:10.7270/Q2Q52N82 (The Scripps Research Institute Molecular Screening Center, 2012).

Structures are written as SMILES.

The target of this experiment is ADP-ribosylation factor GTPase-activating protein 1 (Rattus norvegicus, UniProt Q62848).
Sequence of ADP-ribosylation factor GTPase-activating protein 1 (Q62848 whole entry): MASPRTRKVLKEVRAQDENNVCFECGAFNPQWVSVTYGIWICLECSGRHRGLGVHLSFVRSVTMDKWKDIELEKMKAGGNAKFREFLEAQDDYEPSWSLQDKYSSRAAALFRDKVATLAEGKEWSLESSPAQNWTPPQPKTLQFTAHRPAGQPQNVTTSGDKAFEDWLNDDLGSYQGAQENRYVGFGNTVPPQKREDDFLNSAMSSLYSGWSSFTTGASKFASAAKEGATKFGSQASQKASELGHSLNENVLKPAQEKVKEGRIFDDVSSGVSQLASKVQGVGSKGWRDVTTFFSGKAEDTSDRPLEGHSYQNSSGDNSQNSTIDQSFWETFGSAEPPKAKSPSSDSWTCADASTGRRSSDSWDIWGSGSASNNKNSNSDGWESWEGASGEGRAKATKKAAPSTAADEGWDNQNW
Compound `CCOc1ccc2oc(C(=O)OCC(=O)N3CC(C)OC(C)C3)c(C)c2c1` (stereo not given) [[2-(2,6-dimethylmorpholin-4-yl)-2-oxoethyl] 5-ethoxy-3-methyl-1-benzofuran-2-carboxylate] showed a half-inhibitory concentration (IC50) greater than 165 µM.

For the compound `CC(C)=CCC/C(C)=C/Cc1c(O)ccc(C(=O)/C=C/c2ccc(O)cc2)c1O`, the IC50 was greater than 165 µM.

For `COc1ccc(-c2cc3ccccc3oc2=O)cc1NC(=O)c1cccnc1` [N-[2-methoxy-5-(2-oxidanylidenechromen-3-yl)phenyl]pyridine-3-carboxamide], the half-inhibitory concentration (IC50) is greater than 165 µM.

Consider `c1ccc(-c2cc(-c3nnc4sc(-c5ccccn5)nn34)[nH]n2)cc1` [3-(3-phenyl-1H-pyrazol-5-yl)-6-(2-pyridinyl)-[1,2,4]triazolo[3,4-b][1,3,4]thiadiazole], for which the IC50 was greater than 165 µM.

Compound `CCC(/C=C1\Sc2ccc(OC)cc2N1CCO)=C\c1sc2ccc(OC)cc2[n+]1CCO` gave an IC50 greater than 165 µM.

`O=NCc1ccc2noc(-c3ccc(Cl)cc3)c2c1` [SMR000549694] displayed a half-inhibitory concentration (IC50) of 50.7 µM.

Regarding `O=C(Nc1ccc(CN2CCOCC2)cc1)c1ccc(-c2cc(Cl)ccc2Cl)o1` [5-(2,5-dichlorophenyl)-N-[4-(4-morpholinylmethyl)phenyl]-2-furamide], the half-maximal inhibitory concentration (IC50) is greater than 165 µM.

Take `CC(=O)c1cccc(NC(=O)c2cccc3c(-c4cnn(C)c4)coc23)c1` [MLS003120506]: the IC50 was greater than 165 µM.

In the case of `C=CCNc1nc(NCc2cccc(OC)c2)c2sc(-c3ccccc3)cc2n1` [N4-[(3-methoxyphenyl)methyl]-6-phenyl-N2-prop-2-enyl-thieno[3,2-d]pyrimidine-2,4-diamine], the IC50 is greater than 165 µM.

For the compound `Cc1ccc2nc(SCC(=O)c3ccc(Cl)cc3)nc(=O)n2c1`, the IC50 is greater than 165 µM.

Consider `COCC(C)n1c(C)cc(C(=O)CN2c3cccc4cccc(c34)S2(=O)=O)c1C` (stereo not given) [MLS002169376], for which the IC50 was greater than 165 µM.

Regarding `CC1CC(C)CN(C(=O)COC(=O)c2cc3ccccc3cc2O)C1` (stereo not given) [[2-(3,5-dimethylpiperidin-1-yl)-2-oxidanylidene-ethyl] 3-oxidanylnaphthalene-2-carboxylate], the half-maximal inhibitory concentration (IC50) is greater than 165 µM.

On to `Cc1ccc2nc(SCC(=O)Nc3cccc(Cl)c3)nc(=O)n2c1` [MLS001234985], for which the concentration for half-maximal inhibition (IC50) is greater than 18.3 µM.

As for `C=c1cc2[nH]c(=O)c(=Cc3ccc(-c4cccc(Cl)c4)o3)c(=N)n2o1` [(6Z)-6-[[5-(3-chlorophenyl)-2-furanyl]methylidene]-7-imino-2-methyl-5-isoxazolo[2,3-a]pyrimidinone], the 50% inhibitory concentration (IC50) was greater than 2.03 µM.

Consider `CN(C)CCNC(=O)c1ccc(-c2cn3c(-c4ccc(Oc5ccccc5)cc4)cnc3cn2)cc1` [MLS003123272], for which the IC50 is greater than 18.3 µM.

A word on the IC50: it is the concentration that gives 50% inhibition. Higher therefore signals a need for much substance.
